Assay results: patent US5073571A, “Method of inhibiting virus” (priority 1989, dated 1991)

Key:
[1] = test system: HIV-1; test: Syncytia assay in HIV-1 infected H9 cells; format: cell-based, HIV-1 strain HXB2gptX (in human H9 cells); settings: compared to infected, untreated H9 controls
Experimental: (§1) Media was changed every other day. The effect of these compounds on virus production was determined by measuring the reverse transcriptase (RT) activity in samples of the cell culture supernatants. […] Negative controls consisted of no additions or 0.1ethanol. The results of duplicate assays were averaged. Panel B -Concentration-dependent effects of 13-oxamyristic acid on HIV-1 replication as measured by RT activity (percent of untreated control) and the presence of p24 antigen (ng/ml determined by ELISA). Error bars indicate the S.E.M. of assays done in triplicate. Panel C - The effect of 13-oxamyristic acid on syncytia formation using an arbitrary scale described under Materials and Methods, Example 16, below. Panel D - Toxicity of 13-oxamyristic acid determined by viable cell count (trypan blue exclusion), as well as by [^3 H]thymidine and [^3 H]leucine labeling (see under Materials and Methods, Example 16, below). The incorporation of these radiolabeled compounds was determined in the total cell population contained in a well after 10 days of treatment with the analog. Duplicate assays were performed and the results averaged.
Assay for HIV-1 Replication. The human T-lymphoid cell line, H9, was provided by R. D. Gallo (NIH) and maintained in RPMI-1640 medium supplemented with 10% fetal bovine serum, 100 IU/mL penicillin, 100 μg/mL streptomycin an 2 mM L-glutamine. […] The titer of the virus stock was determined by serial dilution using syncytia formation and reverse transcriptase activity (see below) as a measure of infectivity in H9 cells. […]
Syncytia Assay. The number of syncytia in each well was determined by microscopic examination on days 4-6 (infected, untreated control cultures), 8 and 10 (analog or decanoate treated cultures). The average number of multi-nucleated giant cells counted per 10 low-power fields (LPF =40 times magnification) was assigned to an arbitrary syncytia scale: 0=<1/LPF, 1+=1-4/LPF, 2+=5-7/LPF, 3+= 8-10/LPF, 4+=>10/LPF. By this criteria uninfected, control cells had zero synctia, and infected, untreated H9 cells were consistently scored as 4+.

[2] = test system: HIV-1; test: HIV-1 replication in H9 cells, reverse transcriptase activity of culture supernatants (acute infection); format: cell-based, HIV-1 strain HXB2gptX (in human H9 cells); settings: for activity at 100 µM: Human immunodeficiency virus 1, H9, 240 h, read-out: reverse transcriptase (RT) activity; for effect on reverse transcriptase activity: 1-10 μM, 10 day incubation, HIV-1 infected H9 cells
Experimental: as §1
Assay for HIV-1 Replication. The human T-lymphoid cell line, H9, was provided by R. D. Gallo (NIH) and maintained in RPMI-1640 medium supplemented with 10% fetal bovine serum, 100 IU/mL penicillin, 100 μg/mL streptomycin an 2 mM L-glutamine. HIV-1 strain HXB2gptX [Fisher et al., Science 233, 655-659 (1986)] was obtained from cultures of chronically infected H9 cells [Popovic et al., Science 224, 497-500 (1984)]< filtered through 0.2 μm Millipore filters and stored at -90° C. The titer of the virus stock was determined by serial dilution using syncytia formation and reverse transcriptase activity (see below) as a measure of infectivity in H9 cells.
Cell-free HIV-1, at a multiplicity of infection (m.o.i.) equal to 0.01-0.001, was added to 10^7 H9 cells which had been pretreated with 2 μg/ml Polybrene® (hexadimethrene bromide, Sigma). Following a 30 min incubation at 37° C. to absorb the virus, 4 × 10^5 of virus treated cells in 1 mL of fresh medium (plus 10% fetal calf serum, pencillin and streptomycin) were added to each well of a 24 well tissue culture plate (Falcon), and mixed with an equal volume of serum-free RPMI-1640 medium containing analog. Medium containing 5% serum, antibiotics ± analog was replaced every other day. Each of the heteroatom substituted analogs was prepared as a 100 mM stock solution in 100% ethanol and stored at -90° C. prior to dilution in the serum-free RPMI-1640 medium. The maximum final ethanol concentration reached after dilution of the different analogs in media was 0.1%. Therefore, uninfected and infected H9 cells, treated with or without 0.1% ethanol, were used as controls for each test. Ethanol alone had no demonstrable effects.
Except for the preliminary screening of the various (coded) analogs which was done twice, all other assays were performed at least three times. Samples were tested in duplicate each time the assay was repeated.
Virus Assays. Virus was quantitated using supernatant solutions of cells harvested on day 8 (m.o.i.=0.01) or day 10 (m.o.i.=0.001) of treatment. Virions were concentrated 10 fold by precipitation of culture supernatants with a solution of polyethylene glycol (30% in 150 mM NaCl, 0.1 mM phenylmethylsulfonylfluoride). The precipitates were solubilized and virus-associated reverse transcriptase (RT) activity measured by [^32 P]TTP incorporation using a poly(rA)-oligo(dT) template [Poiesz et al., Proc. Natl. Acad. Sci. USA 77, 7415-7419 (1980)]. Cell supernatants were also tested for virus-specific antigen using a p24 ELISA from Dupont (Wilmington, DE). This assay can detect as little as 0.03 ng of antigen/mL (antigen=p24, the major structural nucleocapsid protein of HIV-1, as well as its precursor, Pr55^gag).
HIV-1 Replication in H9 Cells is Inhibited by Treatment with Heteroatom-Containing Analogs of Myristate. […]

[3] = test system: MoMLV; test: MoMLV replication: LZ1 virus titer by histochemical staining of NIH 3T3 cells for β-galactosidase; format: cell-based, Maloney murine leukemia virus
From the text: Panel A -Schematic representation of the MoMLV assay system. […] This cell produces infectious, replication defective virus (designated (LZ1) which carries the LacZ gene. When NIH3T3 cells are exposed to supernatant taken from the LZ1 virus producing cells, they are initially infected and their progeny are detectable by histochemical staining for β-galactosidase. Thus, the titer of the virus produced by the LZ1 cells after treatment with the various agents, can be readily determined by counting the number of blue NIH3T3 cells. Replication competent MoMLV is not detected using this assay system since the lacZ gene product is not present. Panel B - The effect of 6-oxamyristic acid and 13-oxamyristic acid on LZ1 virus production. The results represent the mean (+1 standard deviation) of three independent tests each done in duplicate. Panel C - Number of viable LZ1 producing cells at the end of a 2 day treatment with analog as measured by trypan blue exclusion. The results of duplicate assays were averaged. Panel D - The effects of analog treatment on incorporation of [^3 H]leucine. Cells in duplicate wells were pulse labeled for 4 h following three days of incubation with analog or ethanol (0.1%). Duplicate assays were performed. The results were averaged and expressed as a percentage of the results obtained from untreated cells.
Assay of the Effects of Analogs on the Replication of Maloney Murine Leukemia Virus. The LZ1 titer assay was developed for rapid histochemical quantitation of infectious virus production. In brief, the LZ1 virus-producing cell line was derived by Sanes et al., EMBO J. 5, 3133-3142 (1986), from the .PSI.-2 cell line. .PSI.-2-cells are NIH 3T3 cells that contain a stably integrated packaging mutant (pMOV-.PSI.-) of MoMLV. This mutant has a deletion of 350 nucleotides between the 5' donor splice site for env and the initiator methionine codon for Pr65^gag [Mann et al., Cell 33, 153-159 (1983)]. The LZ1 cell line is a subclone of .PSI.-2 cells that were co-transfectd with pM-MuLV-SV-LacZ [Sanes et al., supra.]and pSVTK neoB and then selected for G418 (Geneticin®) antibiotic resistance and production of defective MoMLV containing the E. coli β-galactosidase gene [Sanes et al., supra.]. The recombinant virus produced by LZ1 cells is capable of primary infection of NIH 3T3 cells but is replication defective [Sanes et al., surpa.]. Infected NIH 3T3 containing the lac-Z gene can be identified by histochemical staining for β-galactosidase activity.
To assess the effects of analog treatment on MoMLV replication, 1 × 10^5 LZ1 producing cells were added to each well of a 24-well tissue culture plate in 1 mL of Dulbecco's Modified Eagle's medium (DME) containing calf serum (final concentration =10%), penicillin (100 IU/mL), streptomycin (100 μg/mL) with or without analog (10-100 μM). After 24 h, the media was removed and fresh serum-containing media ±analog was added. The next day (48 hours after plating), the virus containing supernatant was removed and passed through a 0.2 μm filter. Various size aliquots (25-100 μL of the 1 mL filtrate) were added to 1 × 10^4 NIH 3T3 cells contained in 1 mL of DME/10% calf serum/penicillin/streptomycin. These indicator cells had been plated 24 h earlier in 24 well tissue culture plates. Polybrene (Sigma) was added at the same time as the filtrate so that its final concentration was 10 μg/mL. […]

[4] = test system: virus; test: Antiviral effectiveness compared with C13-C14 analogs; settings: C16 saturated fatty acid analog
[5] = Hydrophobicity; format: physicochemical; settings: thioether moiety introduced into the fatty acid chain
[6] = test system: myristoyl CoA: protein N-myristoyl transferase (NMT); test: Ability to act as substrate for NMT; format: biochemical
From the text: Purification and use of this enzyme are described, for example, by Towler et al., Proc. Natl. Acad. Sci. USA 84, 2708-2712 (1987); J. Biol. Chem. 262, 1030-1036 (1987).

[7] = test system: AIDS virus (HIV); settings: cited from earlier work

CCCCCCCCCC(=O)O [decanoic acid, reference compound]
effect on number of syncytia [1]: no effect on the number of synctia
activity at 100 µM [2]: 80%
reduction of MoMLV titers compared to untreated controls ([3]; 10-100 μM, 2 day treatment of LZ1 cells): no significant reductions

CCCOCCCCCCCCCC(=O)O [11oxamyristate, 10-(Propoxy)decanoic acid]
effect on reverse transcriptase activity [2]: More pronounced effects

CCCCCCCCOCCCCC(=O)O [6-oxamyristate, 5-(octyloxy)pentanoic acid]
effect on reverse transcriptase activity [2]: No reduction in reverse transcriptase activity
relative efficacy on HIV-1 production ([2]; 1-100 μM, H9 cells, ranking among the four analogs): least effective
effect on HIV-1 production / replication ([2]; H9 cells): no effect on HIV-1 replication
activity at 100 µM [2]: 20%
inhibition at 100 µM ([3]; Murine leukemia virus, NIH3T3, 48 h, read-out: average reduction in virus titers (MoMLV)): > 60%
inhibition at 10 µM ([3]; Murine leukemia virus, NIH3T3, 48 h, read-out: reduction in MoMLV replication (virus titer)): 40%
effect on MoMLV replication ([3]; up to 100 μM, 2 day treatment of LZ1 cells): inhibits MoMLV replication in a concentration dependent fashion

CCCCOCCCCCCCCCCC(=O)O [Compound I, 11-(1-butoxy)undecanoic acid]
effectiveness versus analogs based on C13-C14 fatty acids [4]: less effective than the analogs based on C13 -C14 fatty acids

CCSCCCCCCCCCCC(=O)O [12thiamyristate, 11-(Ethylthio)undecanoic acid]
hydrophobicity [5]: decreases its hydrophobicity
ability to act as a substrate for NMT [6]: leaves intact its ability to act as a substrate
effect on reverse transcriptase activity [2]: More pronounced effects

Cc1cn([C@H]2C[C@H](N=[N+]=[N-])[C@@H](CO)O2)c(=O)[nH]c1=O [AZT, 3'-azido-3'-deoxythymidine, reference compound]
inhibition of replication of the virus in vitro [7]: shown to inhibit replicaton of the virus in vitro
inhibition at 5 µM ([2]; Human immunodeficiency virus 1, H9, read-out: inhibition of viral replication in the H9 acute assay): > 90%
